{
  "source": "patent US20250288561A1",
  "about": "“NEZULCITINIB FOR DELIVERY BY NEBULIZED ORAL INHALATION” (THERAVANCE BIOPHARMA R&D IP, LLC, priority 2022, published 2025)",
  "key": {"[1]": {"target": "TYK2 (Homo sapiens, UniProt P29597)", "sequence (P29597 whole entry)": "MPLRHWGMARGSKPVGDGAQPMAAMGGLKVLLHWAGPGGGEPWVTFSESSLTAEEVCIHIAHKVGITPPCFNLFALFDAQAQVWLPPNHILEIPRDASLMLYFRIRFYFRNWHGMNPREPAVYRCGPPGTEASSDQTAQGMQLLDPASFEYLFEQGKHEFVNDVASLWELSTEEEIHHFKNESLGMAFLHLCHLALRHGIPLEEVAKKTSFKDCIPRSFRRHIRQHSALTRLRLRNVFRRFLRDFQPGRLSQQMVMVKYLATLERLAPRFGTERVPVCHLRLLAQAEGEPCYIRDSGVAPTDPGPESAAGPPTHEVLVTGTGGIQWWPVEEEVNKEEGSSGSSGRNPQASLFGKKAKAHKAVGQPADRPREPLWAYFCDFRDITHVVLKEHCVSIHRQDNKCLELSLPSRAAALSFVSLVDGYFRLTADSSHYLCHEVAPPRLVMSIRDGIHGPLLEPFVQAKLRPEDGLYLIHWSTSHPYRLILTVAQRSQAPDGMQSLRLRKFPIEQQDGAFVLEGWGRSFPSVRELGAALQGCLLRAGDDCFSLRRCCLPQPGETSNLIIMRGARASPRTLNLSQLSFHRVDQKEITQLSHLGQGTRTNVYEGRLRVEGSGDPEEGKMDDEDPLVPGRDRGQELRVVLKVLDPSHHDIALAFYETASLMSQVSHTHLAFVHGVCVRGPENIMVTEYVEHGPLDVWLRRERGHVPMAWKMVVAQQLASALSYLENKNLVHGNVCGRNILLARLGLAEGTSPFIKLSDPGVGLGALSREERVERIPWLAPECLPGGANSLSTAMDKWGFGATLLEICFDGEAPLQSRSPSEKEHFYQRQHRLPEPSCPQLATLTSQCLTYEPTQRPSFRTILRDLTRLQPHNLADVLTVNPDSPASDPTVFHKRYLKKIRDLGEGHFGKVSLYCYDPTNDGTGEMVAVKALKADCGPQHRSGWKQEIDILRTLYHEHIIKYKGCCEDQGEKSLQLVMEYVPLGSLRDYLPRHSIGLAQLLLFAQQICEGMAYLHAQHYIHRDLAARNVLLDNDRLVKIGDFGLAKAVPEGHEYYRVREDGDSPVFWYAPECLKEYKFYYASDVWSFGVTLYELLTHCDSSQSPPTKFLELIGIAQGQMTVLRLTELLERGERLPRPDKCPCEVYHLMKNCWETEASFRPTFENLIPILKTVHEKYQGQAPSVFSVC", "assay": "JAK enzyme inhibition", "type": "biochemical"}, "[2]": {"target": "T1, JAK3 (Homo sapiens, UniProt P52333)", "T1 sequence (P52333 1-1124)": "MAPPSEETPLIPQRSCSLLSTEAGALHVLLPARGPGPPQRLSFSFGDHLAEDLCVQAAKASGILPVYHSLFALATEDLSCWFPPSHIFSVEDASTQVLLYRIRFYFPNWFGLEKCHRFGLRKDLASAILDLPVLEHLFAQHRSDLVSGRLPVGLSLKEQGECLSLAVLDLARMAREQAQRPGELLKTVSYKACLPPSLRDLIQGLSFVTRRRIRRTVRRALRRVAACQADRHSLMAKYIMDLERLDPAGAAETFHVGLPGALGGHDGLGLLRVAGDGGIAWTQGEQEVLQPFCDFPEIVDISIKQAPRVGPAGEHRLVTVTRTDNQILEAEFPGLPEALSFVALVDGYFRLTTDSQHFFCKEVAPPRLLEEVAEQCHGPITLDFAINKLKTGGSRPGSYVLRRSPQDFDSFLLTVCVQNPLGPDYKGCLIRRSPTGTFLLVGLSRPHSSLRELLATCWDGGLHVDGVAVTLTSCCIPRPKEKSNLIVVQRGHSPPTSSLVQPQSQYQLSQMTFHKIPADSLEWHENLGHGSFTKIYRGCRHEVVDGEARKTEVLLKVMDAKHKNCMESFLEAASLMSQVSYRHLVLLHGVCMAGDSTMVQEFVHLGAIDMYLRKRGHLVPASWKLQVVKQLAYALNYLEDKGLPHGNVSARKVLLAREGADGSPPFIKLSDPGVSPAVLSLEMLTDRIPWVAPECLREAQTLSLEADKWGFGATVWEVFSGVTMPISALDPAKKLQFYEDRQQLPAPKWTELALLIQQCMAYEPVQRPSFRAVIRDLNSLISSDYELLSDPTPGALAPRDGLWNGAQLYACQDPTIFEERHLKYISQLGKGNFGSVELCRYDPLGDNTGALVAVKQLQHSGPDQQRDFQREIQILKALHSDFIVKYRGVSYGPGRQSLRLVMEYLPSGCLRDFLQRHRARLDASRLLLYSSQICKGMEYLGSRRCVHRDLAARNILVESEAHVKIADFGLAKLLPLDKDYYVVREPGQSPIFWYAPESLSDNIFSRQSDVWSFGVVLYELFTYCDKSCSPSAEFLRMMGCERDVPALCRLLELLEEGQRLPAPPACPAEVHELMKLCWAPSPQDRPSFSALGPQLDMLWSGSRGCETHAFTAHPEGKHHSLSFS", "assay": "JAK enzyme inhibition", "type": "biochemical"}, "[3]": {"tested_on": "NK cells", "assay": "Earlier phase 1 clinical trial: absolute NK cell counts after multiple dosing", "type": "in vivo, human", "details": "any dose level (1, 3, or 10 mg)", "description": "Compound 1 was evaluated in a phase 1 clinical trial and dosed in humans through nebulized inhalation at 1 mg, 3 mg, and 10 mg for up to 7 days. […] The pharmacokinetics of inhaled compound 1 are consistent with low plasma exposures after inhaled administration. […] Additionally, absolute NK cell counts were evaluated after multiple-dosing to assess the potential for systemic pharmacologic effects associated with JAK inhibition by compound 1. […] The lack of reduction in NK cell counts is also consistent with the lack of systemic JAK inhibition. […] Other systemically mediated hematological changes associated with JAK inhibition, including neutrophil and hemoglobin reductions as well as lipid changes, were not observed with inhaled administration of compound 1."}},
  "data": [
    {"smiles": "CCc1cc(O)ccc1-c1ccc2c(-c3nc4c([nH]3)CN(C(C)C)[C@H](C(=O)N3CC(N(C)C)C3)C4)n[nH]c2c1", "note": "[Compound 1, (S)-(3-(dimethylamino)azetidin-1-yl)(2-(6-(2-ethyl-4-hydroxyphenyl)-1H-indazol-3-yl)-5-isopropyl-4,5,6,7-tetrahydro-3H-imidazo[4,5-c]pyridin-6-yl)methanone]", "values": [
      {"measurement": "inhibition of TYK2", "setting": "[1]", "result": "potent inhibitor"},
      {"measurement": "inhibition of JAK3", "setting": "[2]", "result": "potent inhibitor"},
      {"measurement": "absolute NK cell counts relative to baseline", "setting": "[3]", "result": "No reductions in NK cells were observed"}
    ]}
  ]
}
